# Assay results published in PMC9324262, “Selective CDK9 Inhibition by Natural Compound Toyocamycin in Cancer Cells” (Cancers, 2022).
# Tests used:
# [1] = system: HCT116 SFRP1-GFP colon cancer cells; experiment: GFP reactivation in HCT116 SFRP1-GFP model; type: cell-based, human; conditions: dose-response
# Procedure: YB5 cells are derived from SW48 cells (human colon cancer cell line), and contain a single insertion of a DNA hypermethylated cytomegalovirus (CMV) promoter driving the green fluorescent protein (GFP) gene, as previously described. YB5 cells are cultured in L-15 medium supplemented with 10% fetal bovine serum and grown in log-phase in 1% CO2 atmosphere. YB5 cells were authenticated by DNA fingerprinting prior to drug screening and validation experiments. GFP expression in YB5 cells is silenced in >99.9% of the cells due to the CMV promoter DNA hypermethylation and repressive chromatin marks around the transcriptional start site. The human HCT116 colon cancer-derived GFP-reporter system, comprising a GFP gene under the control of an endogenously hypermethylated SFRP1 gene promoter, was kindly provided by Dr. Stephen Baylin (Johns Hopkins University). These cells are cultured in McCoy’s 5A medium supplemented with 10% fetal bovine serum and grown in log-phase in 5% CO2 atmosphere at 37 °C. […]
# After treatment, YB5 cells were trypsinized for 15 min and resuspended in L-15 media containing propidium iodide (PI) to stain dead cells. GFP expression and PI staining were quantified by a BD LSR II flow cytometer (BD Biosciences, San Jose, CA, USA). A maximum of 10,000 cells was analyzed per well. […]
# [2] = system: YB5 cells; experiment: RNA sequencing, differential gene expression; type: cell-based, human
# Procedure: Sequenced reads were aligned to the GRCh38.100 reference genome using STAR version 2.7.5a and gene-level counts were generated by setting the “quantMode GeneCounts” flag. Differential expression analysis was performed using EdgeR version 3.32.1.. The “filterByExpr” function in EdgeR was then used to determine genes with sufficiently large counts to be included in downstream differential expression testing. The filtered count matrix was then normalized using TMM normalization and differential expression testing was performed using the “glmTreat” function with the minimal required fold-change threshold set to “log2(1)” for significant differential gene expression (FDR < 0.1).
# [3] = system: Rb phosphorylation level (T826); experiment: Western blot, Rb and phospho-Rb T826; type: cell-based, human; conditions: HCT116, 50–500 nM, 6 h
# [4] = cell viability by Viacount, YB5; type: cell-based; conditions: human, YB5 colon cancer cells; 24 and 72 h, 50 nM to 50 µM, highest doses; read-out: cell viability relative to untreated cells
# Procedure: (§1) Cell viability was measured in YB5 and HCT166 cells using Viacount (Luminex, Austin, TX, USA, 4000-0040) on a Guava flow cytometer (Millipore, Burlington, MA, USA). Colon cancer cells were grown in 96-well plates in the same conditions as in the drug screen and treated with toyocamycin and known CDK9 inhibitor BAY1251152 (Selleckchem, Houston, TX, USA). Cell culture media of each well was collected to harvest floating dead cells and kept aside for later. Cells were trypsinized (0.25% trypsin, Gibco, Waltham, MA, USA) for 5 min at 37 °C. Cell culture media of each well was added back to their corresponding wells to stop trypsinization and mixed thoroughly to obtain a single cell suspension. Viacount solution (Luminex, Austin, TX, USA, 4000-0040, 25 μL) was added to each well, and incubated (5 min at room temperature, in the dark) prior to cell viability analysis on the Guava flow cytometer.
# [5] = cell viability by Viacount, HCT116; type: cell-based; conditions: human, HCT116 colon cancer cells; 24 and 72 h, 50 nM to 50 µM, highest doses; read-out: cell viability relative to untreated cells
# Procedure: as §1
# [6] = system: 451-Lu-BR human melanoma cells; experiment: proliferation assay by cell counting; type: cell-based
# Procedure: Proliferation assays were performed for 451-Lu-BR human melanoma cells in response to toyocamycin exposure. First, 20,000 cells were seeded per well in 24-well plates. Cells were treated with either DMSO (<0.01% final concentration) or various toyocamycin concentrations. Cell proliferation was assessed by cell counting using a hemocytometer (n = 3) after 24, 48, and 72 h of treatment. The data were plotted as the total number of cells in response to toyocamycin for each treatment duration relative to DMSO treated cells.
smiles,measurement,setting,value
"N#Cc1cn([C@@H]2O[C@H](CO)[C@@H](O)[C@H]2O)c2ncnc(N)c12 [toyocamycin, 7-Deaza-7-cyanoadenosine]",GFP expression,[1],induced dose-dependent GFP expression
same,gene downregulation,"[2]; 250 nM, 2 h",3.5%
same,number of genes downregulated,"[2]; 250 nM, 2 h",513 genes
same,number of genes upregulated,"[2]; 250 nM, 2 h",24 genes
same,number of genes downregulated,"[2]; 250 nM, 10 h",2299 genes
same,number of genes upregulated,"[2]; 250 nM, 10 h",1999 genes
same,level of differentially expressed genes,"[2]; 250 nM, 10 h to 96 h",up to 60%
same,number of genes downregulated,"[2]; 250 nM, 24 h",3651 genes
same,number of genes upregulated,"[2]; 250 nM, 24 h",3387 genes
same,number of genes downregulated,"[2]; 250 nM, 48 h",4377 genes
same,number of genes upregulated,"[2]; 250 nM, 48 h",4449 genes
same,number of genes downregulated,"[2]; 250 nM, 96 h",5061 genes
same,number of genes upregulated,"[2]; 250 nM, 96 h",5050 genes
same,endogenous retrovirus (ERV) expression,[2]; 24 h treatment,induced significant ERV expression
same,Rb and its phosphorylated form (T826),[3],did not change
same,viability,[4],> 50%
same,viability,[5],> 50%
same,cell proliferation,[6]; 72 h treatment,full proliferation arrest
same,cell proliferation,"[6]; low doses, 24 h treatment",did not reduce cell proliferation
